According to ChEMBL document CHEMBL1201862, “PubChem BioAssay data set” (2004):
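Five concentrations, 48 hours, 96-well plates. Abbreviation: GI50, concentration required for 50% inhibition of growth.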 Calls of active or inactive are those of the source. Rule as the data show it: active = GI50 up to about 1.1 µM and inactive = higher.

Columns and labels:
Assay in all cases: NCI anticancer screen, dose series, 48 h
786-0 = tested on: 786-0
A498 = tested on: A498
A549 = tested on: A549
ACHN = tested on: ACHN
CAKI-1 = tested on: CAKI-1
CCRF-CEM = tested on: CCRF-CEM
COLO 205 = tested on: COLO 205
DLD-1 = tested on: DLD-1
DMS-114 = tested on: DMS-114
DMS-273 = tested on: DMS-273
EKVX = tested on: EKVX
HCC 2998 = tested on: HCC 2998
HCT-116 = tested on: HCT-116
HCT-15 = tested on: HCT-15
HL-60 = tested on: HL-60
HOP-18 = tested on: HOP-18
HOP-62 = tested on: HOP-62
HOP-92 = tested on: HOP-92
HT-29 = tested on: HT-29
IGROV-1 = tested on: IGROV-1
K562 = tested on: K562
KM-20L2 = tested on: KM-20L2
KM12 = tested on: KM12
LOX IMVI = tested on: LOX IMVI
LXFL 529 = tested on: LXFL 529
M14 = tested on: M14
M19-MEL = tested on: M19-MEL
MOLT-4 = tested on: MOLT-4
Malme-3M = tested on: Malme-3M
NCI-H226 = tested on: NCI-H226
NCI-H23 = tested on: NCI-H23
NCI-H460 = tested on: NCI-H460
NCI-H522 = tested on: NCI-H522
OVCAR-3 = tested on: OVCAR-3
OVCAR-4 = tested on: OVCAR-4
OVCAR-5 = tested on: OVCAR-5
OVCAR-8 = tested on: OVCAR-8
RPMI-8226 = tested on: RPMI-8226
RXF 393 = tested on: RXF 393
RXF 631 = tested on: RXF 631
SF-268 = tested on: SF-268
SF-295 = tested on: SF-295
SF-539 = tested on: SF-539
SK-MEL-28 = tested on: SK-MEL-28
SK-MEL-2 = tested on: SK-MEL-2
SK-MEL-5 = tested on: SK-MEL-5
SK-OV-3 = tested on: SK-OV-3
SN12C = tested on: SN12C
SNB-19 = tested on: SNB-19
SNB-75 = tested on: SNB-75
SW-620 = tested on: SW-620
TK-10 = tested on: TK-10
U-251 = tested on: U-251
UACC-257 = tested on: UACC-257
UACC-62 = tested on: UACC-62
UO-31 = tested on: UO-31
XF498 = tested on: XF498
SNB-78 = tested on: SNB-78
SR = tested on: SR

SMILES: COc1ccc2[nH]c3c(c2c1)[C@H]1CCC(C(C)(C)C)C[C@H]1[C@H]1C(=O)N(c2ccccc2)C(=O)[C@@H]31 (stereo not given in full)
- GI50 (786-0): 3.86 µM (inactive)
- GI50 (A498): 14.7 µM (inactive)
- GI50 (A549): 12.7 µM (inactive)
- GI50 (ACHN): 4.17 µM (inactive)
- GI50 (CAKI-1): 12 µM (inactive)
- GI50 (CCRF-CEM): 18.9 µM (inactive)
- GI50 (COLO 205): 11.4 µM (inactive)
- GI50 (DLD-1): 13.5 µM (inactive)
- GI50 (DMS-114): 21.9 µM (inactive)
- GI50 (DMS-273): 32.7 µM (inactive)
- GI50 (EKVX): 32.7 µM (inactive)
- GI50 (HCC 2998): 36 µM (inactive)
- GI50 (HCT-116): 12.4 µM (inactive)
- GI50 (HCT-15): > 100 µM
- GI50 (HL-60): 39.4 µM (inactive)
- GI50 (HOP-18): 25.6 µM (inactive)
- GI50 (HOP-62): 11.1 µM (inactive)
- GI50 (HOP-92): 6.21 µM (inactive)
- GI50 (HT-29): > 100 µM (inactive)
- GI50 (IGROV-1): > 58.7 µM (inactive)
- GI50 (K562): 20.6 µM (inactive)
- GI50 (KM-20L2): > 51.4 µM (inactive)
- GI50 (KM12): > 43.4 µM (inactive)
- GI50 (LOX IMVI): 20.7 µM (inactive)
- GI50 (LXFL 529): 69.3 µM (inactive)
- GI50 (M14): 8.22 µM (inactive)
- GI50 (M19-MEL): 26.1 µM (inactive)
- GI50 (MOLT-4): 20.9 µM (inactive)
- GI50 (Malme-3M): 15.8 µM (inactive)
- GI50 (NCI-H226): 27.6 µM (inactive)
- GI50 (NCI-H23): 12.1 µM (inactive)
- GI50 (NCI-H460): 6.9 µM (inactive)
- GI50 (NCI-H522): 12.1 µM (inactive)
- GI50 (OVCAR-3): 23.3 µM (inactive)
- GI50 (OVCAR-4): 3.3 µM (inactive)
- GI50 (OVCAR-5): > 60.1 µM (inactive)
- GI50 (OVCAR-8): 6.84 µM (inactive)
- GI50 (RPMI-8226): 33.3 µM (inactive)
- GI50 (RXF 393): 9.42 µM (inactive)
- GI50 (RXF 631): 6.15 µM (inactive)
- GI50 (SF-268): 13.1 µM (inactive)
- GI50 (SF-295): 7.18 µM (inactive)
- GI50 (SF-539): 5.4 µM (inactive)
- GI50 (SK-MEL-28): 44.3 µM (inactive)
- GI50 (SK-MEL-2): 20 µM (inactive)
- GI50 (SK-MEL-5): > 47.6 µM (inactive)
- GI50 (SK-OV-3): 15.6 µM (inactive)
- GI50 (SN12C): 11.9 µM (inactive)
- GI50 (SNB-19): 16.3 µM (inactive)
- GI50 (SNB-75): 5.97 µM (inactive)
- GI50 (SW-620): 20.2 µM (inactive)
- GI50 (TK-10): 22.6 µM (inactive)
- GI50 (U-251): 6.14 µM (inactive)
- GI50 (UACC-257): 24.2 µM (inactive)
- GI50 (UACC-62): 31 µM (inactive)
- GI50 (UO-31): 24 µM (inactive)
- GI50 (XF498): 9.91 µM (inactive)

SMILES: CC/C(SC)=[N+](\C)[O-]
- GI50 (786-0): > 100 µM (inactive)
- GI50 (A498): > 100 µM (inactive)
- GI50 (A549): > 100 µM (inactive)
- GI50 (ACHN): > 100 µM (inactive)
- GI50 (CAKI-1): > 100 µM (inactive)
- GI50 (CCRF-CEM): 15.5 µM (inactive)
- GI50 (COLO 205): > 44.8 µM (inactive)
- GI50 (DLD-1): > 45.9 µM (inactive)
- GI50 (DMS-114): > 39 µM (inactive)
- GI50 (EKVX): > 100 µM (inactive)
- GI50 (HCC 2998): > 100 µM (inactive)
- GI50 (HCT-116): > 46.9 µM (inactive)
- GI50 (HCT-15): 57.9 µM
- GI50 (HL-60): 17.9 µM (inactive)
- GI50 (HOP-18): > 100 µM (inactive)
- GI50 (HOP-62): > 100 µM (inactive)
- GI50 (HOP-92): > 100 µM (inactive)
- GI50 (HT-29): > 100 µM (inactive)
- GI50 (IGROV-1): > 100 µM (inactive)
- GI50 (K562): 44.2 µM (inactive)
- GI50 (KM-20L2): > 100 µM (inactive)
- GI50 (KM12): > 100 µM (inactive)
- GI50 (LOX IMVI): > 41.3 µM (inactive)
- GI50 (LXFL 529): > 100 µM (inactive)
- GI50 (M14): > 100 µM (inactive)
- GI50 (M19-MEL): > 100 µM (inactive)
- GI50 (MOLT-4): 32.7 µM (inactive)
- GI50 (Malme-3M): > 100 µM (inactive)
- GI50 (NCI-H226): > 100 µM (inactive)
- GI50 (NCI-H23): > 100 µM (inactive)
- GI50 (NCI-H460): > 100 µM (inactive)
- GI50 (NCI-H522): > 43.1 µM (inactive)
- GI50 (OVCAR-3): > 100 µM (inactive)
- GI50 (OVCAR-4): > 100 µM (inactive)
- GI50 (OVCAR-5): > 100 µM (inactive)
- GI50 (OVCAR-8): > 100 µM (inactive)
- GI50 (RPMI-8226): > 93.1 µM (inactive)
- GI50 (RXF 393): > 100 µM (inactive)
- GI50 (RXF 631): > 100 µM (inactive)
- GI50 (SF-268): > 100 µM (inactive)
- GI50 (SF-295): > 100 µM (inactive)
- GI50 (SF-539): > 100 µM (inactive)
- GI50 (SK-MEL-28): > 100 µM (inactive)
- GI50 (SK-MEL-2): > 100 µM (inactive)
- GI50 (SK-MEL-5): > 100 µM (inactive)
- GI50 (SK-OV-3): > 100 µM (inactive)
- GI50 (SN12C): > 100 µM (inactive)
- GI50 (SNB-19): > 100 µM (inactive)
- GI50 (SNB-75): > 67.9 µM (inactive)
- GI50 (SNB-78): > 100 µM (inactive)
- GI50 (SR): 25.8 µM (inactive)
- GI50 (SW-620): > 100 µM (inactive)
- GI50 (TK-10): > 100 µM (inactive)
- GI50 (U-251): > 100 µM (inactive)
- GI50 (UACC-257): > 100 µM (inactive)
- GI50 (UACC-62): > 100 µM (inactive)
- GI50 (UO-31): > 100 µM (inactive)
- GI50 (XF498): > 100 µM (inactive)
